In patent US7459446B2, “Treatment of diabetes with copper binding compounds” (priority 1998, dated 2008):
Like-named read-outs stand apart in the source and are kept apart here. Marks after values point to notes of the source that are not given here.

Legend:
[1] = cited from earlier work; for bioavailability: oral administration
[2] = tested on: fructosamine oxidase; assay: fructosamine oxidase inhibition assay in human sera (ferricytochrome c, g-BSA substrate); assay type: biochemical
Excerpt: The effectiveness of the inhibitor was expressed not by an equilibrium constant but by a velocity constant (K) which determined the fraction of the enzyme inhibited in a given period of time by a certain concentration of inhibitor.

[3] = tested on: streptozocin-diabetic rat (STZ rat); assay: First preclinical study: intravenous streptozotocin diabetic rat, 8 months; assay type: in vivo, Wistar rats; conditions: for Survivors at week 32 / mean weight change amongst surviving study animals: rat, in vivo; for Glucose: week 4, mean±SD; for Glucose / HbA1c: 50 mg/L in drinking water; for HbA1c: week 32, mean±SD
[4] = tested on: fructosamine oxidase; assay: fructosamine oxidase inhibition assay in human sera (ferricytochrome c, g-BSA substrate); assay type: biochemical; conditions: read-out: IC50 (concentration of inhibitor causing 50% inactivation of the enzyme)
[5] = tested on: streptozocin-diabetic rat (STZ rat); assay: Second preclinical study: intraperitoneal streptozotocin diabetic rat, 6 months; assay type: in vivo, Wistar rats; set-up: Mean ± SEM weight gain: unit not given here; conditions: for Mean ± SEM weight gain: beginning to end of the 24 week period; for effect on weight gain (in words): compared with untreated STZ diabetic control rats, 6-month period; for % with cataract / No with cataract: gross cataract formation; for % with cataract / No with cataract / No with severe fibrosis: week 24; for No with severe fibrosis: gross myocardial fibrosis; for mortality rate: rat, in vivo
[6] = solutions exposed to light at room temperature, 24 hours; cited from earlier work
[7] = beagle dogs, cited from earlier work
[8] = cited from earlier work
[9] = fresh human sera, 0-1,000 μM inhibitor, 0.05 M TES buffer pH 7.4, 37° C., 5 minutes

**Q.** Which bioavailability [1] does the source give for `O=C(O)CN(CCN(CC(=O)O)CC(=O)O)CC(=O)O` [EDTA, ethylenediamine tetraacetic acid] here?
**A.** less than 5%

**Q.** What about the “K (velocity/rate constant)” value ([2]; 10.0 μM inhibitor (*)) of the same compound?
**A.** 0.0755* min^−1

**Q.** And the “Survivors at week 32” value [3]?
**A.** 5

**Q.** And the “mean weight change amongst surviving study animals” value [3]?
**A.** +1.2%

**Q.** What about the Glucose [3] of the same compound?
**A.** 39.0 ± 6.04 mmol/L

**Q.** What about the HbA1c [3] of the same compound?
**A.** 9.30 ± 0.63%

**Q.** What about the IC50 ([4]; pH 7.4) of the same compound?
**A.** 15.7 µM

**Q.** Which “K (velocity/rate constant)” value ([2]; 1.0 μM inhibitor) does the source give for `CC(=O)N[C@@H](CS)C(=O)O` [acetylcysteine] here?
**A.** 0.1677 min⁻¹

**Q.** And the “Survivors at week 32” value [3]?
**A.** 7

**Q.** And the “mean weight change amongst surviving study animals” value [3]?
**A.** −8.1%

**Q.** And the Glucose [3]?
**A.** 37.8 ± 5.2 mmol/L

**Q.** What about the HbA1c [3] of the same compound?
**A.** 9.47 ± 1.23%

**Q.** And the IC50 ([4]; pH 7.4)?
**A.** 0.83 µM

**Q.** With `CC(=O)N[C@H](C(=O)O)C(C)(C)S` [acetylpenicillamine] as the compound, how does the “K (velocity/rate constant)” value ([2]; 1.0 μM inhibitor) read?
**A.** 0.0811 min⁻¹

**Q.** What about the IC50 [4, 9] of the same compound?
**A.** 1.06 µM

**Q.** Which “K (velocity/rate constant)” value ([2]; 10.0 μM inhibitor (*)) does the source give for `N=C(N)NN` [aminoguanidine] here?
**A.** 0.0067* min^−1

**Q.** What about the IC50 [4, 9] of the same compound?
**A.** 231 µM

**Q.** Which “K (velocity/rate constant)” value ([2]; 10.0 μM inhibitor (*)) does the source give for `NC(CO)C(=O)NNCc1ccc(O)c(O)c1O` (centres unmarked) [benserazide] here?
**A.** 0.0095* min^−1

**Q.** What about the IC50 [4, 9] of the same compound?
**A.** 13.6 µM

**Q.** What does the source list for `C[C@H](CS)C(=O)N1CCC[C@H]1C(=O)O` [captopril]?
**A.** HbA1c ([5]; Week 4, mean±SD): 8.5 ± 0.9; HbA1c ([5]; Week 12, mean±SD): 9.2 ± 1.1; HbA1c ([5]; Week 24, mean±SD): 9.4 ± 01.3; Mean ± SEM weight gain [5]: 60.7 ± 20.7; effect on weight gain (in words) [5]: ineffective; % with cataract [5]: 25%; No with cataract [5]: 2; No with severe fibrosis [5]: 6; mortality rate [5]: 0%; binding in vivo to albumin and other plasma proteins ([1]; in vivo): almost completely bound; bioavailability [1]: approximately 65%; K (velocity/rate constant) ([2]; 1.0 μM inhibitor): 0.0259 min⁻¹; IC50 ([4]; pH 7.4): 1.78 µM

**Q.** For `C[C@@](Cc1ccc(O)c(O)c1)(NN)C(=O)O` [carbidopa], which oxidative degradation [6] is on record?
**A.** 50%

**Q.** What about the HbA1c ([5]; Week 4, mean±SD) of the same compound?
**A.** 9.0 ± 1.0

**Q.** And the HbA1c ([5]; Week 12, mean±SD)?
**A.** 9.6 ± 0.7

**Q.** What about the HbA1c ([5]; Week 24, mean±SD) of the same compound?
**A.** 9.9 ± 1.1

**Q.** What about the “Mean ± SEM weight gain” value [5] of the same compound?
**A.** 33.7 ± 20.4

**Q.** What about the “effect on weight gain (in words)” value [5] of the same compound?
**A.** ineffective

**Q.** What about the “% with cataract” value [5] of the same compound?
**A.** 25%

**Q.** What about the No with cataract [5] of the same compound?
**A.** 2

**Q.** What about the “No with severe fibrosis” value [5] of the same compound?
**A.** 2

**Q.** What about the mortality rate [5] of the same compound?
**A.** 0%

**Q.** What about the absolute bioavailability ([7]; oral) of the same compound?
**A.** 88%

**Q.** What about the biological half-life [7] of the same compound?
**A.** 5 hours

**Q.** What about the oral absorption [7] of the same compound?
**A.** almost complete

**Q.** And the “K (velocity/rate constant)” value ([2]; 1.0 μM inhibitor)?
**A.** 0.1496 min⁻¹

**Q.** And the IC50 ([4]; pH 7.4)?
**A.** 0.5 µM

**Q.** With `CC(=O)N(O)CCCCCNC(=O)CCC(=O)N(O)CCCCCNC(=O)CCC(=O)N(O)CCCCCN` [desferrioxamine] as the compound, how does the “K (velocity/rate constant)” value ([2]; 10.0 μM inhibitor (*)) read?
**A.** 0.0109* min^−1

**Q.** And the IC50 ([4]; pH 7.4)?
**A.** 40.6 µM

**Q.** Which “K (velocity/rate constant)” value [2] does the source give for `N/N=C(\N)NN` [diaminoguanidine] here?
**A.** 0.1340 min⁻¹

**Q.** And the IC50 ([4]; pH 7.4)?
**A.** 0.36 µM

**Q.** Which “K (velocity/rate constant)” value ([2]; 1.0 μM inhibitor) does the source give for `CCOC(=O)[C@H](CCc1ccccc1)N[C@@H](C)C(=O)N1CCC[C@H]1C(=O)O` [enalapril] here?
**A.** 0.0326 min⁻¹

**Q.** And the IC50 [4, 9]?
**A.** 3.95 µM

**Q.** For `N[C@@H](Cc1c[nH]cn1)C(=O)O` [histidine], which “K (velocity/rate constant)” value ([2]; 1.0 μM inhibitor) is on record?
**A.** 0.0554 min⁻¹

**Q.** What about the IC50 [4, 9] of the same compound?
**A.** 2.29 µM

**Q.** Which results are given for `NNc1nncc2ccccc12` [hydralazine]?
**A.** Survivors at week 32 [3]: 6; mean weight change amongst surviving study animals [3]: −11.0%; Glucose [3]: 35.7 ± 9.5 mmol/L; HbA1c [3]: 8.65 ± 1.18%; bioavailability ([8]; man, oral administration): 26-55%; drug excreted in the urine unchanged ([8]; over 24 hours after oral administration): 2.0-3.6%

**Q.** What does the source list for `NCCCC[C@H](N[C@@H](CCc1ccccc1)C(=O)O)C(=O)N1CCC[C@H]1C(=O)O` [lisinopril]?
**A.** K (velocity/rate constant) ([2]; 1.0 μM inhibitor): 0.0174 min⁻¹; IC50 [4, 9]: 217 µM

**Q.** What does the source list for `c1cnc2c(c1)ccc1cccnc12` [o-phenathroline]?
**A.** K (velocity/rate constant) ([2]; 1.0 μM inhibitor): 0.0385 min⁻¹; IC50 [4, 9]: 4.25 µM

**Q.** Which “K (velocity/rate constant)” value ([2]; 1.0 μM inhibitor) does the source give for `NNC(=O)C(=O)NN` [oxalic dyhydrazide] here?
**A.** 0.0542 min⁻¹

**Q.** What about the IC50 [4, 9] of the same compound?
**A.** 1.59 µM

**Q.** With `NNc1ccccc1` [phenylhydrazine] as the compound, how does the “K (velocity/rate constant)” value [2] read?
**A.** 0.1160 min⁻¹

**Q.** And the IC50 ([4]; pH 7.4)?
**A.** 0.81 µM

**Q.** For `NNC(N)=O` [semicarbazide], which “K (velocity/rate constant)” value [2] is on record?
**A.** 0.0276* min^−1

**Q.** What about the IC50 ([4]; pH 7.4) of the same compound?
**A.** 45 µM
